{"source": "PubChem BioAssay (NCI)", "note": "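Growth conditions: 96-well plates. Treatment: test compound, 48 hours, 5 concentrations. Analysis: linear interpolation between bracketing concentrations; unreached endpoints set to highest concentration. The concentration for 50% growth inhibition is given as GI50. TGI: concentration producing complete growth inhibition.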"}
{"test_system": "HCT-116 colon", "test": "growth of human tumour cells (NCI), 48 h", "units": {"GI50": "µM", "TGI": "µM"}}
{"molecule": "Oc1ccc(CN2CCC(N3CCCCC3)CC2)c2cccnc12", "GI50": 4.49, "TGI": "> 100"}
{"molecule": "CC[C@@]1(O)C(=O)OCc2c1cc1n(c2=O)Cc2c-1nc1cc3c(cc1c2CCl)OCO3", "GI50": "< 0.01", "TGI": 0.294}
{"molecule": "N#Cc1ccc(O)c(C2=NCC(c3cccc(Oc4ccccc4)c3)O2)c1", "note": "(centres undefined)", "GI50": 0.587, "TGI": 13.7}
{"molecule": "CC1(C)OC2[C@@H](CNC(=O)NC(=O)NC(=O)CI)O[C@@H](n3cnc4c(NC(=O)Nc5ccccc5)ncnc43)[C@H]2O1", "note": "(some centres undefined)", "GI50": 10.7, "TGI": 25.4}
{"molecule": "COc1cc(C2=C(c3ccccc3)COC2=O)cc(OC)c1OC", "GI50": 2.29, "TGI": "> 38.1"}
{"molecule": "O=C1Nc2c(C(F)(F)F)cccc2[C@]1(c1ccc(O)cc1)c1ccc(OC(F)(F)F)cc1", "GI50": 7.73, "TGI": 23.9}
{"molecule": "CC(=O)OC[C@]1(C)C=C2C(=O)[C@](C)(O)C3(CC3)C(C)=C2[C@H]1O", "GI50": 0.0321, "TGI": "> 100"}
{"molecule": "Oc1ccc(NCc2nc3ccccc3[nH]2)cc1", "GI50": 41.8, "TGI": "> 100"}
{"molecule": "C[C@]12CC[C@H]3[C@@H](CC=C4C[C@@H](O)CC[C@@]43C)[C@@H]1CC[C@@H]2N(CCO)CCO", "TGI": "> 100"}
{"molecule": "CC(C)(C)OC(=O)N1CCc2c(sc3ncnc(N/N=C/c4cccc5ccccc45)c23)C1", "GI50": 3.22, "TGI": 30.4}
{"molecule": "CC[C@@H]1CN(C)[C@H]2Cc3c([nH]c4ccccc34)C(=O)C[C@H]1C2C(=O)OC", "note": "(some centres undefined)", "TGI": "> 100"}
{"molecule": "CCN(CC)c1ccc(/C=C/c2ccc3cc(C)ccc3[n+]2CC)cc1", "GI50": 0.033, "TGI": 2.57}
{"molecule": "COc1ccc(/C=C/c2nccc3ccccc23)cc1OC", "TGI": "> 10"}
{"molecule": "COC1/C=C\\C=C(/C)C(=O)NC2=CC(=O)C(=O)C(=C2O)CC(C)CC(OC)C(O)C(C)/C=C(\\C)C1OC(N)=O", "note": "(centres undefined)", "TGI": 14.4}
{"molecule": "O=c1[nH]ncc(Br)c1Br", "GI50": 1.8, "TGI": 3.42}
{"molecule": "COc1ccc(-c2cc(=O)c3c(OC)c(OC)c(OC)cc3o2)cc1", "TGI": "> 100"}
{"test_system": "HOP-62 NSCLC", "test": "growth of human tumour cells (NCI), 48 h", "units": {"GI50": "µM", "TGI": "µM"}}
{"molecule": "Oc1ccc(CN2CCC(N3CCCCC3)CC2)c2cccnc12", "GI50": 6.25, "TGI": "> 100"}
{"molecule": "CC[C@@]1(O)C(=O)OCc2c1cc1n(c2=O)Cc2c-1nc1cc3c(cc1c2CCl)OCO3", "GI50": "< 0.01", "TGI": "< 0.0479"}
{"molecule": "N#Cc1ccc(O)c(C2=NCC(c3cccc(Oc4ccccc4)c3)O2)c1", "note": "(centres undefined)", "GI50": 0.605, "TGI": 12.7}
{"molecule": "CC1(C)OC2[C@@H](CNC(=O)NC(=O)NC(=O)CI)O[C@@H](n3cnc4c(NC(=O)Nc5ccccc5)ncnc43)[C@H]2O1", "note": "(some centres undefined)", "GI50": "> 50", "TGI": "> 50"}
{"molecule": "COc1cc(C2=C(c3ccccc3)COC2=O)cc(OC)c1OC", "GI50": 2.07, "TGI": "> 100"}
{"molecule": "O=C1Nc2c(C(F)(F)F)cccc2[C@]1(c1ccc(O)cc1)c1ccc(OC(F)(F)F)cc1", "GI50": 15.7, "TGI": 39.9}
{"molecule": "CC(=O)OC[C@]1(C)C=C2C(=O)[C@](C)(O)C3(CC3)C(C)=C2[C@H]1O", "GI50": 0.239, "TGI": 1.23}
{"molecule": "Oc1ccc(NCc2nc3ccccc3[nH]2)cc1", "GI50": 22.4, "TGI": 62.2}
{"molecule": "C[C@]12CC[C@H]3[C@@H](CC=C4C[C@@H](O)CC[C@@]43C)[C@@H]1CC[C@@H]2N(CCO)CCO", "TGI": "> 100"}
{"molecule": "CC(C)(C)OC(=O)N1CCc2c(sc3ncnc(N/N=C/c4cccc5ccccc45)c23)C1", "GI50": 3.79, "TGI": "> 100"}
{"molecule": "CC[C@@H]1CN(C)[C@H]2Cc3c([nH]c4ccccc34)C(=O)C[C@H]1C2C(=O)OC", "note": "(some centres undefined)", "TGI": "> 100"}
{"molecule": "CCN(CC)c1ccc(/C=C/c2ccc3cc(C)ccc3[n+]2CC)cc1", "GI50": 0.158, "TGI": 6.21}
{"molecule": "COc1ccc(/C=C/c2nccc3ccccc23)cc1OC", "TGI": "> 10"}
{"molecule": "COC1/C=C\\C=C(/C)C(=O)NC2=CC(=O)C(=O)C(=C2O)CC(C)CC(OC)C(O)C(C)/C=C(\\C)C1OC(N)=O", "note": "(centres undefined)", "TGI": "> 74.1"}
{"molecule": "O=c1[nH]ncc(Br)c1Br", "GI50": 5.65, "TGI": 18.1}
{"molecule": "COc1ccc(-c2cc(=O)c3c(OC)c(OC)c(OC)cc3o2)cc1", "TGI": 59.8}
{"test_system": "HOP-92 NSCLC", "test": "growth of human tumour cells (NCI), 48 h", "units": {"GI50": "µM", "TGI": "µM"}}
{"molecule": "Oc1ccc(CN2CCC(N3CCCCC3)CC2)c2cccnc12", "GI50": 4.51, "TGI": "> 100"}
{"molecule": "CC[C@@]1(O)C(=O)OCc2c1cc1n(c2=O)Cc2c-1nc1cc3c(cc1c2CCl)OCO3", "GI50": "< 0.01", "TGI": 0.466}
{"molecule": "N#Cc1ccc(O)c(C2=NCC(c3cccc(Oc4ccccc4)c3)O2)c1", "note": "(centres undefined)", "GI50": 1.81, "TGI": 37}
{"molecule": "CC1(C)OC2[C@@H](CNC(=O)NC(=O)NC(=O)CI)O[C@@H](n3cnc4c(NC(=O)Nc5ccccc5)ncnc43)[C@H]2O1", "note": "(some centres undefined)", "GI50": 1.4, "TGI": 4.23}
{"molecule": "COc1cc(C2=C(c3ccccc3)COC2=O)cc(OC)c1OC", "GI50": 13.6, "TGI": "> 100"}
{"molecule": "O=C1Nc2c(C(F)(F)F)cccc2[C@]1(c1ccc(O)cc1)c1ccc(OC(F)(F)F)cc1", "GI50": 5.82, "TGI": 21.5}
{"molecule": "CC(=O)OC[C@]1(C)C=C2C(=O)[C@](C)(O)C3(CC3)C(C)=C2[C@H]1O", "GI50": 0.148, "TGI": 0.623}
{"molecule": "Oc1ccc(NCc2nc3ccccc3[nH]2)cc1", "GI50": 12.8, "TGI": 53}
{"molecule": "C[C@]12CC[C@H]3[C@@H](CC=C4C[C@@H](O)CC[C@@]43C)[C@@H]1CC[C@@H]2N(CCO)CCO", "TGI": "> 100"}
{"molecule": "CC(C)(C)OC(=O)N1CCc2c(sc3ncnc(N/N=C/c4cccc5ccccc45)c23)C1", "GI50": 2.78, "TGI": 92.3}
{"molecule": "CC[C@@H]1CN(C)[C@H]2Cc3c([nH]c4ccccc34)C(=O)C[C@H]1C2C(=O)OC", "note": "(some centres undefined)", "TGI": "> 100"}
{"molecule": "CCN(CC)c1ccc(/C=C/c2ccc3cc(C)ccc3[n+]2CC)cc1", "GI50": 0.147, "TGI": 0.87}
{"molecule": "COc1ccc(/C=C/c2nccc3ccccc23)cc1OC", "TGI": "> 10"}
{"molecule": "COC1/C=C\\C=C(/C)C(=O)NC2=CC(=O)C(=O)C(=C2O)CC(C)CC(OC)C(O)C(C)/C=C(\\C)C1OC(N)=O", "note": "(centres undefined)", "TGI": 21}
{"molecule": "O=c1[nH]ncc(Br)c1Br", "GI50": 1.79, "TGI": 3.31}
{"molecule": "COc1ccc(-c2cc(=O)c3c(OC)c(OC)c(OC)cc3o2)cc1", "TGI": 79.9}
{"test_system": "OVCAR-5 ovarian", "test": "growth of human tumour cells (NCI), 48 h", "units": {"GI50": "µM", "TGI": "µM"}}
{"molecule": "Oc1ccc(CN2CCC(N3CCCCC3)CC2)c2cccnc12", "GI50": 45.4, "TGI": "> 100"}
{"molecule": "CC[C@@]1(O)C(=O)OCc2c1cc1n(c2=O)Cc2c-1nc1cc3c(cc1c2CCl)OCO3", "GI50": 0.0593, "TGI": 2.12}
{"molecule": "N#Cc1ccc(O)c(C2=NCC(c3cccc(Oc4ccccc4)c3)O2)c1", "note": "(centres undefined)", "GI50": 2.95, "TGI": "> 100"}
{"molecule": "CC1(C)OC2[C@@H](CNC(=O)NC(=O)NC(=O)CI)O[C@@H](n3cnc4c(NC(=O)Nc5ccccc5)ncnc43)[C@H]2O1", "note": "(some centres undefined)", "GI50": 8.74, "TGI": 18}
{"molecule": "COc1cc(C2=C(c3ccccc3)COC2=O)cc(OC)c1OC", "GI50": 4.84, "TGI": "> 100"}
{"molecule": "O=C1Nc2c(C(F)(F)F)cccc2[C@]1(c1ccc(O)cc1)c1ccc(OC(F)(F)F)cc1", "GI50": 12, "TGI": 24.4}
{"molecule": "CC(=O)OC[C@]1(C)C=C2C(=O)[C@](C)(O)C3(CC3)C(C)=C2[C@H]1O", "GI50": 0.0666, "TGI": 0.506}
{"molecule": "Oc1ccc(NCc2nc3ccccc3[nH]2)cc1", "GI50": "> 100", "TGI": "> 100"}
{"molecule": "C[C@]12CC[C@H]3[C@@H](CC=C4C[C@@H](O)CC[C@@]43C)[C@@H]1CC[C@@H]2N(CCO)CCO", "TGI": "> 100"}
{"molecule": "CC(C)(C)OC(=O)N1CCc2c(sc3ncnc(N/N=C/c4cccc5ccccc45)c23)C1", "GI50": 4.71, "TGI": "> 100"}
{"molecule": "CC[C@@H]1CN(C)[C@H]2Cc3c([nH]c4ccccc34)C(=O)C[C@H]1C2C(=O)OC", "note": "(some centres undefined)", "TGI": "> 100"}
{"molecule": "CCN(CC)c1ccc(/C=C/c2ccc3cc(C)ccc3[n+]2CC)cc1", "GI50": 0.309, "TGI": 16.8}
{"molecule": "COc1ccc(/C=C/c2nccc3ccccc23)cc1OC", "TGI": "> 10"}
{"molecule": "COC1/C=C\\C=C(/C)C(=O)NC2=CC(=O)C(=O)C(=C2O)CC(C)CC(OC)C(O)C(C)/C=C(\\C)C1OC(N)=O", "note": "(centres undefined)", "TGI": "> 100"}
{"molecule": "O=c1[nH]ncc(Br)c1Br", "GI50": 1.69, "TGI": 3.08}
{"molecule": "COc1ccc(-c2cc(=O)c3c(OC)c(OC)c(OC)cc3o2)cc1", "TGI": "> 100"}
{"test_system": "RPMI-8226 leukemia", "test": "growth of human tumour cells (NCI), 48 h", "units": {"GI50": "µM", "TGI": "µM"}}
{"molecule": "Oc1ccc(CN2CCC(N3CCCCC3)CC2)c2cccnc12", "GI50": 6.33, "TGI": "> 100"}
{"molecule": "CC[C@@]1(O)C(=O)OCc2c1cc1n(c2=O)Cc2c-1nc1cc3c(cc1c2CCl)OCO3", "GI50": "< 0.01", "TGI": 0.309}
{"molecule": "N#Cc1ccc(O)c(C2=NCC(c3cccc(Oc4ccccc4)c3)O2)c1", "note": "(centres undefined)", "GI50": 0.715, "TGI": "> 100"}
{"molecule": "CC1(C)OC2[C@@H](CNC(=O)NC(=O)NC(=O)CI)O[C@@H](n3cnc4c(NC(=O)Nc5ccccc5)ncnc43)[C@H]2O1", "note": "(some centres undefined)", "GI50": 7.82, "TGI": 23.3}
{"molecule": "COc1cc(C2=C(c3ccccc3)COC2=O)cc(OC)c1OC", "GI50": 1.12, "TGI": 5.28}
{"molecule": "O=C1Nc2c(C(F)(F)F)cccc2[C@]1(c1ccc(O)cc1)c1ccc(OC(F)(F)F)cc1", "GI50": 10.4, "TGI": 59.1}
{"molecule": "CC(=O)OC[C@]1(C)C=C2C(=O)[C@](C)(O)C3(CC3)C(C)=C2[C@H]1O", "GI50": 13.9, "TGI": "> 81.5"}
{"molecule": "Oc1ccc(NCc2nc3ccccc3[nH]2)cc1", "GI50": 72.8, "TGI": "> 100"}
{"molecule": "C[C@]12CC[C@H]3[C@@H](CC=C4C[C@@H](O)CC[C@@]43C)[C@@H]1CC[C@@H]2N(CCO)CCO", "TGI": "> 100"}
{"molecule": "CC(C)(C)OC(=O)N1CCc2c(sc3ncnc(N/N=C/c4cccc5ccccc45)c23)C1", "GI50": 2.28, "TGI": 8.49}
{"molecule": "CC[C@@H]1CN(C)[C@H]2Cc3c([nH]c4ccccc34)C(=O)C[C@H]1C2C(=O)OC", "note": "(some centres undefined)", "TGI": "> 100"}
{"molecule": "CCN(CC)c1ccc(/C=C/c2ccc3cc(C)ccc3[n+]2CC)cc1", "GI50": 0.029, "TGI": 3.66}
{"molecule": "COc1ccc(/C=C/c2nccc3ccccc23)cc1OC", "TGI": "> 10"}
{"molecule": "COC1/C=C\\C=C(/C)C(=O)NC2=CC(=O)C(=O)C(=C2O)CC(C)CC(OC)C(O)C(C)/C=C(\\C)C1OC(N)=O", "note": "(centres undefined)", "TGI": 33.5}
{"molecule": "O=c1[nH]ncc(Br)c1Br", "GI50": 1.91, "TGI": 6.18}
